Values quoted from earlier work as cited in patent US20160113981A1, “TOPICAL COMPOSITION” (priority 2014, published 2016).

Legend:
[1] = after topical application of lavender oil
[2] = equimolar dose of indomethacin

SMILES	time of peak in the blood [1] [min]	anti-inflammatory effect compared with indomethacin [2]
C=CC(C)(CCC=C(C)C)OC(C)=O (stereo not drawn) [linalyl acetate]	19	
CC1=CC[C@@]2(C)[C@H]([C@@H]1C)[C@H]1CC[C@@H]3[C@@]4(C)CC[C@H](O)C(C)(C)[C@@H]4CC[C@@]3(C)[C@]1(C)C[C@@H]2O [faradiol]		same effects as an equimolar dose of indomethacin
C=CC(C)(O)CCC=C(C)C (stereo not drawn) [linalool]	19	
